Tests used:
[1] = tested on: weeds; assay: Weed control by the pest control sheet in a watermelon crop; assay type: in vivo
Description: (§1) The present invention further provides a method for pest control. Said method may be applied in agriculture, horticulture or in garden maintenance. In agriculture and horticulture said method is applied as follows: subsequent to physically preparing the field and soil for planting, e.g. plowing, fumigating the soil and laying down of an irrigation system, the sheet is spread over the field so as to cover the soil [FIG. II, (1)], and is then secured to the ground. The sheet [FIG. II, (2), (3)] is then punctured at the spot where a seedling is intended to be planted so that a seedling [FIG. II, (4)] may be inserted through the hole [FIG. II, (5)] and planted in the soil. […] When the sheet contains a pesticide in the top layer, then pest control is maintained above the soil, in the area of the plant. This may also help in protecting the fruit/vegetable itself. Said method can be applied in gardens in a similar manner as described above. The sheet and method of the present invention have been applied to a watermelon crop. The experiments were conducted with three different concentrations of herbicide in the bottom layer.

[2] = tested on: watermelon crop; assay: Watermelon crop development under the pest control sheet; assay type: in vivo
Description: as §1

[3] = 0.5 weight % of pesticide in bottom layer of sheet
[4] = 1 weight % of pesticide in bottom layer of sheet
[5] = 2 weight % of pesticide in bottom layer of sheet

CCOc1cc(Oc2ccc(C(F)(F)F)cc2Cl)ccc1[N+](=O)[O-] [Oxyfluorfen, 2-chloro-a,a,a-trifluoro-p-tolyl 3-ethoxy-4-nitrophenyl ether]
100%: Weed control (% of weed control on a scale of 0-100, 100 indicating total prevention of weed emergence) [1, 3] | Weed control (% of weed control on a scale of 0-100, 100 indicating total prevention of weed emergence) [1, 4] | Weed control (% of weed control on a scale of 0-100, 100 indicating total prevention of weed emergence) [1, 5] | Development (% of crop development in comparison to healthy crop on a scale of 0-100, 100 indicating a healthy crop) [2, 3] | Development (% of crop development in comparison to healthy crop on a scale of 0-100, 100 indicating a healthy crop) [2, 4] | Development (% of crop development in comparison to healthy crop on a scale of 0-100, 100 indicating a healthy crop) [2, 5]

Reference: patent publication US20080312086A1, “PEST CONTROL SHEET” (MAKHTESHIM CHEMICAL WORKS LTD., priority 2000, published 2008)
